Drawing on patent US9562036B2, “Fluoromethyl-substituted pyrrole carboxamides as CaV2.2 calcium channel blockers” (GRÜNENTHAL GMBH, priority 2013, dated 2017), this text covers inhibition for eight molecules.

The assay addresses T1, Human CaV2.2 channels (Homo sapiens, UniProt Q00975).
T1 construct: expressed in transfected cells; also stably expressing Kir2.3)
Put plainly: Fluorescent assay for CaV2.2 channels using potassium depolarization to induce channel opening (FLIPR, Fluo 4). In kind it is cell-based. The following applies: 3 μM test compound; 30 mM KCl alternative assay buffer (inactivated channel state); HEK293 cells; read-out: %-Inhib (CaV2.2) @3 μM @30 mM KCl. From the text:
In the process, the Ca^2+ influx is quantified in the FLIPR assay with the aid of a Ca^2+-sensitive dye (type Fluo-4, Molecular Probes Europe BV, Leiden, the Netherlands) in a fluorescent imaging plate reader (FLIPR 3, Molecular Devices, Sunnyvale, USA), as described hereinafter.
2. Assay Descriptions and Biological Data: 2.1 Fluorescent Assay for CaV2.2 Channels Using Potassium Depolarization to Induce Channel Opening
Human CaV2.2 channels were stably expressed in HEK293 cells together with alpha2-delta and beta subunits of voltage gated calcium channels. In addition, an inwardly rectifying potassium channel (Kir2.3) was stably expressed in these cells to augment control of the cell membrane potential by the concentration of extracellular potassium ions. Raise of the extracellular potassium concentration leads to depolarization of the membrane potential and thus regulates the voltage dependent state of CaV2.2 channels. For preparation, cells were seeded in black poly-D-lysine coated 96-well plates (Becton Dickinson, Biocoat 4640) in 100 μL medium [500 mL DMEM/F-12 plus Glutamax (Invitrogen 31331-093) plus 5.5 mL MEM NEAA 100× (Invitrogen 11140-035) plus 50 mL FBS decomplemented (Invitrogen 10270-106) plus 200 μg/mL Geneticin (Invitrogen 10131-027) plus 50 μg/mL Hygromycin B (Invitrogen 10687-010) plus 2 μg/mL Blasticidin (anti-bl5b Invivo-Gen) plus 0.2 μg/mL Puromycin (A 11138-03)] at a cell density of 30.000 cells per well. Plates were incubated at 37° C. (5% CO2) for 20 to 23 h. On the day of experiment medium was discarded and cells were loaded with Fluo 4 by addition of 100 μL of basic assay buffer (10 mM HEPES, 1 mM KCl, 149 mM NaCl, 0.8 mM CaC2, 1.7 mM MgCl2, 10 mM Glucose, 0.1% BSA. pH 7.4) containing 2 μM Fluo 4 (Molecular Probes; F-14201), 0.01% pluronic acid (Molecular Probes; P-6866) and 2.5 mM probenecid (Molecular Probes; P36400). Cells were incubated in the dark at 25° C. for 60 min. Then dye containing buffer was discarded and 100 μL basic (1 mM KCl) or alternative (30 mM KCl) assay buffer was added. The alternative assay buffer contained altered concentrations of KCl (30 mM) and NaCl (120 mM) and was used in order to promote the inactivated channel state. After that 25 μL of basic or alternative assay buffer with or without test compound were added and cells were incubated again in the dark at 25° C. for 15 min. Fluorescence intensity was measured on a FLIPR 3 instrument (Molecular Devices Corp., Sunnyvale, Calif.) with excitation at 480 nm and emission at 535 nm. After continuously reading fluorescence for 30 sec, 50 μL of basic assay buffer containing 210 mM KCl (NaCl omitted) were added for depolarization. Peak fluorescent signal intensity was determined and the amplitude of the peak signal, normalized to base line, was used to measure channel inhibition by test compounds.

T1 sequence (Q00975 whole entry): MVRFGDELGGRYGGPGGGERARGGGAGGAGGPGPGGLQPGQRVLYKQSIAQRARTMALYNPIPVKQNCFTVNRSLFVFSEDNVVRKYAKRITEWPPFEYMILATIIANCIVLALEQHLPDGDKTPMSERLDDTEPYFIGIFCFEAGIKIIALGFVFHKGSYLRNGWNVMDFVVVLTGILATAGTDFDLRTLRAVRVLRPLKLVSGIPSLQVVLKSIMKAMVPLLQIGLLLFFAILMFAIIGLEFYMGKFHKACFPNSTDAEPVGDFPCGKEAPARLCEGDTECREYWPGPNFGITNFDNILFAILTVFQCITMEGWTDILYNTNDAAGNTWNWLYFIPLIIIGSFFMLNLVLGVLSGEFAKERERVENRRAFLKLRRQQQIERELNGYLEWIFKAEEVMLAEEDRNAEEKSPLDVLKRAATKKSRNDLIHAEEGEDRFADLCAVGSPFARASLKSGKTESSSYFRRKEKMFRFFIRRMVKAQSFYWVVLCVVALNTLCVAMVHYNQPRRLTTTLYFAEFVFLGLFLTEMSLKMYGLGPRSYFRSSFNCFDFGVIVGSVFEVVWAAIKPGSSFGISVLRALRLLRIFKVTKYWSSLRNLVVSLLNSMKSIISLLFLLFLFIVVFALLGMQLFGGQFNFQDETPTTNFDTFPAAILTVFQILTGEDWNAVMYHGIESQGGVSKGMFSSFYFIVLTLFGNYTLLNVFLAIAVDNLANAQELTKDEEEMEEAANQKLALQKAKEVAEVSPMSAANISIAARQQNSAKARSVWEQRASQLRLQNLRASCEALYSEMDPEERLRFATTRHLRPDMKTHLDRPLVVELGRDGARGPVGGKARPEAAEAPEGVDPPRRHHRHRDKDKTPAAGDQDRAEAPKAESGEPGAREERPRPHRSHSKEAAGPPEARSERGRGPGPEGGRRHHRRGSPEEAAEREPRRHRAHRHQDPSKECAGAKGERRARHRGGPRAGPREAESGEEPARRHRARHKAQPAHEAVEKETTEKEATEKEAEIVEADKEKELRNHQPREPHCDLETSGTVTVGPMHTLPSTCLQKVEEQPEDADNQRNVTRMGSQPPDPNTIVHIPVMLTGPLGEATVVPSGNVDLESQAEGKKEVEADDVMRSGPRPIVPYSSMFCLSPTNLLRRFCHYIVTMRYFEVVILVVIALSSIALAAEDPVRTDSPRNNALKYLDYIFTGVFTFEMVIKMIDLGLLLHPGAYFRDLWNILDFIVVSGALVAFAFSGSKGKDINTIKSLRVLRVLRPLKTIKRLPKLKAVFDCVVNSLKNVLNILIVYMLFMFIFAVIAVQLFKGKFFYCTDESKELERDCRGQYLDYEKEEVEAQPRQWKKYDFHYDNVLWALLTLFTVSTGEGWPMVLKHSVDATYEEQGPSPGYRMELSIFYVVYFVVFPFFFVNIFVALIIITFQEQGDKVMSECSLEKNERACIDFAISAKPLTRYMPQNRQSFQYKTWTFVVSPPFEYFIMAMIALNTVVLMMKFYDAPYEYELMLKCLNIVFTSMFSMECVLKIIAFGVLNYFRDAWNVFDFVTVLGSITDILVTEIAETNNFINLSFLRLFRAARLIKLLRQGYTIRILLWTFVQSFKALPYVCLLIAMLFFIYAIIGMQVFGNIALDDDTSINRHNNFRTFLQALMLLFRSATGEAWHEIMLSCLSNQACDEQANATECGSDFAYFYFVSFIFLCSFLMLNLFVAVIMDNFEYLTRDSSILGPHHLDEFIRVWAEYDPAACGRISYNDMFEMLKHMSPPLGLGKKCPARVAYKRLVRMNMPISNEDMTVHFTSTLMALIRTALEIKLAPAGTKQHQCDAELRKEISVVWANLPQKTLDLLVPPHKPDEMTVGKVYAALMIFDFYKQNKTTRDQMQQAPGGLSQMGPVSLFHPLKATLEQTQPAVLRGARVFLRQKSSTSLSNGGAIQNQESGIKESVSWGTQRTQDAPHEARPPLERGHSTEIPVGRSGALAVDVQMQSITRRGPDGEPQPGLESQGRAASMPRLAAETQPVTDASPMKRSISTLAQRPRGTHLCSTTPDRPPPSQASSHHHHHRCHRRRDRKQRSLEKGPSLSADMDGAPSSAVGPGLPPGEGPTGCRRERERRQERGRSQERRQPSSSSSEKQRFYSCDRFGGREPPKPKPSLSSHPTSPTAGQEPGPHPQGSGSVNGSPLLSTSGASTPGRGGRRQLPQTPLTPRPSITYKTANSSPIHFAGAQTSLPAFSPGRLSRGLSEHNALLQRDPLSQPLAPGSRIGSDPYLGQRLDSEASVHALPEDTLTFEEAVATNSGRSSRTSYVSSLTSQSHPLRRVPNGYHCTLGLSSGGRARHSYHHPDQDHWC

Consider `Cc1c(-c2cnccn2)c(C(=O)N(C)CC(C)(C)C)n(Cc2ccccc2)c1C(F)(F)F` [Example 34, 1-Benzyl-N,4-dimethyl-N-neopentyl-3-(pyrazin-2-yl)-5-(trifluoromethyl)-1H-pyrrole-2-carboxamide], for which the inhibition at 3 µM lay in the range of 75 to 95%.

As to `Cc1cc(Cl)ncc1-c1c(C)c(C(F)(F)F)n(Cc2ccccc2)c1C(=O)N1CCOCC1` [Example 27, [1-Benzyl-3-(6-chloro-4-methyl-pyridin-3-yl)-4-methyl-5-(trifluoromethyl)-1H-pyrrol-2-yl]-morpholin-4-yl-methanone], the inhibition at 3 µM lay in the range of 75 to 95%. As for `Cc1c(-c2ncc(Cl)cn2)c(C(=O)N2CCOC(C)(C)C2)n(Cc2ccccc2)c1C(F)(F)F` [Example 45, [1-Benzyl-3-(5-chloro-pyrimidin-2-yl)-4-methyl-5-(trifluoromethyl)-1H-pyrrol-2-yl]-(2,2-dimethyl-morpholin-4-yl)-methanone], the inhibition at 3 µM is above 95%. As for `Cc1c(-c2ccc(Cl)s2)c(C(=O)N(C)CC(C)(C)C)n(Cc2ccccc2)c1C(F)(F)F` [Example 13, 1-Benzyl-3-(5-chloro-thiophen-2-yl)-N-(2,2-dimethyl-propyl)-N,4-dimethyl-5-(trifluoromethyl)-1H-pyrrole-2-carboxylic acid amide], the inhibition at 3 µM lay in the range of 75 to 95%. For `Cc1c(-c2ccc(F)cn2)c(C(=O)N2CCOCC2)n(Cc2ccccc2)c1C(F)(F)F` [Example 36, (1-Benzyl-3-(5-fluoropyridin-2-yl)-4-methyl-5-(trifluoromethyl)-1H-pyrrol-2-yl)(morpholino)methanone] the value was 75 to 95%.

Regarding `Cc1c(-c2ncc(Cl)cc2[S+](C)[O-])c(C(=O)N(C)C(C)C)n(Cc2ccccc2)c1C(F)(F)F` (centres unmarked) [Example 61, 1-Benzyl-3-[5-chloro-3-(methylsulfinyl)-pyridin-2-yl]-N-isopropyl-N,4-dimethyl-5-(trifluoromethyl)-1H-pyrrole-2-carboxylic acid amide], the inhibition at 3 µM was in the range of 75 to 95%. For `Cc1c(-c2ccc(Cl)cn2)c(C(=O)N(C)CCS(C)(=O)=O)n(Cc2ccccc2)c1C(F)(F)F` [Example 43, 1-Benzyl-3-(5-chloro-pyridin-2-yl)-N,4-dimethyl-N-(2-methylsulfonyl-ethyl)-5-(trifluoromethyl)-1H-pyrrole-2-carboxylic acid amide] the value was above 95%; for `Cc1cc(C#N)ncc1-c1c(C)c(C(F)(F)F)n(Cc2ccccc2)c1C(=O)N(C)CC(C)(C)C` [Example 19, 1-Benzyl-3-(6-cyano-4-methylpyridin-3-yl)-N,4-dimethyl-N-neopentyl-5-(trifluoromethyl)-1H-pyrrole-2-carboxamide], 75 to 95%.
